Measured values published in PubChem BioAssay (NCI).
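Method: 48-hour compound exposure of cells in 96-well plates, five concentrations, linear interpolation of endpoints. TGI: concentration producing complete growth inhibition.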

Experiments:
Assay in all cases: DTP human tumour cell line panel, 48 h
[1] = system: OVCAR-3 ovarian
[2] = system: NCI-H460 lung
[3] = system: HOP-62 NSCLC
[4] = system: MOLT-4 leukemia
[5] = system: SW-620 colon
[6] = system: M19-MEL melanoma
[7] = system: HCC-2998 colon
[8] = system: TK-10 renal
[9] = system: LOX IMVI melanoma
[10] = system: SF-539 CNS
[11] = system: SK-MEL-5 melanoma
[12] = system: KM20L2 colon
[13] = system: HOP-18 NSCLC
[14] = system: UACC-62 melanoma
[15] = system: EKVX NSCLC
[16] = system: NCI-H226 lung
[17] = system: SK-MEL-2 melanoma
[18] = system: UACC-257 melanoma
[19] = system: MALME-3M melanoma
[20] = system: SNB-75 CNS
[21] = system: DMS 114 small cell lung
[22] = system: SR leukemia
[23] = system: OVCAR-5 ovarian
[24] = system: RXF 393 renal
[25] = system: LXFL 529 NSCLC
[26] = system: SK-OV-3 ovarian
[27] = system: CCRF-CEM leukemia
[28] = system: M14 melanoma
[29] = system: COLO 205 colon
[30] = system: KM12 colon
[31] = system: HCT-116 colon
[32] = system: A498 renal
[33] = system: SF-268 CNS
[34] = system: U251 CNS
[35] = system: SK-MEL-28 melanoma
[36] = system: A549 NSCLC
[37] = system: NCI-H522 lung
[38] = system: OVCAR-8 ovarian
[39] = system: DMS 273 small cell lung
[40] = system: HCT-15 colon
[41] = system: SN12C renal
[42] = system: HL-60(TB) leukemia
[43] = system: ACHN renal
[44] = system: K-562 leukemia
[45] = system: NCI-H23 lung
[46] = system: 786-0 renal
[47] = system: IGROV1 ovarian
[48] = system: UO-31 renal
[49] = system: HT29 colon
[50] = system: SNB-19 CNS
[51] = system: CAKI-1 renal
[52] = system: MDA-MB-231 breast
[53] = system: RPMI-8226 leukemia
[54] = system: SF-295 CNS
[55] = system: MDA-MB-435
[56] = system: HOP-92 NSCLC
[57] = system: OVCAR-4 ovarian
[58] = system: T-47D breast
[59] = system: MCF7 breast
[60] = system: PC-3 prostate
[61] = system: BT-549 breast
[62] = system: MDA-N
[63] = system: NCI/ADR-RES ovarian
[64] = system: DU-145 prostate
[65] = system: HS 578T breast

NC(=O)Cn1c(=O)[nH]c(=O)c2[nH]cnc21
TGI [1]: > 100 µM | TGI [2]: > 100 µM | TGI [3]: > 100 µM | TGI [4]: > 100 µM | TGI [5]: > 100 µM | TGI [6]: > 100 µM | TGI [7]: > 100 µM | TGI [8]: > 100 µM | TGI [9]: > 100 µM | TGI [10]: > 100 µM | TGI [11]: > 100 µM | TGI [12]: > 100 µM | TGI [13]: > 100 µM | TGI [14]: > 100 µM | TGI [15]: > 100 µM | TGI [16]: > 100 µM | TGI [17]: > 100 µM | TGI [18]: > 100 µM | TGI [19]: > 100 µM | TGI [20]: > 100 µM | TGI [21]: > 100 µM | TGI [22]: > 100 µM | TGI [23]: > 100 µM | TGI [24]: > 100 µM | TGI [25]: > 100 µM | TGI [26]: > 100 µM | TGI [27]: > 100 µM | TGI [28]: > 100 µM | TGI [29]: > 100 µM | TGI [30]: > 100 µM | TGI [31]: > 100 µM | TGI [32]: > 100 µM | TGI [33]: > 100 µM | TGI [34]: > 100 µM | TGI [35]: > 100 µM | TGI [36]: > 100 µM | TGI [37]: > 100 µM | TGI [38]: > 100 µM | TGI [39]: > 100 µM | TGI [40]: > 100 µM | TGI [41]: > 100 µM | TGI [42]: > 100 µM | TGI [43]: > 100 µM | TGI [44]: > 100 µM | TGI [45]: > 100 µM | TGI [46]: > 100 µM | TGI [47]: > 100 µM | TGI [48]: > 100 µM | TGI [49]: > 100 µM | TGI [50]: > 100 µM

CCOC(=O)C1C2C1C1C(C(=O)OCC)C21 (stereo not given)
TGI [1]: > 100 µM | TGI [2]: > 100 µM | TGI [51]: > 100 µM | TGI [3]: > 100 µM | TGI [52]: > 100 µM | TGI [4]: > 100 µM | TGI [5]: > 100 µM | TGI [53]: > 100 µM | TGI [7]: > 100 µM | TGI [8]: > 100 µM | TGI [9]: > 100 µM | TGI [54]: > 100 µM | TGI [10]: > 100 µM | TGI [11]: > 100 µM | TGI [14]: > 100 µM | TGI [55]: > 100 µM | TGI [15]: > 100 µM | TGI [16]: > 100 µM | TGI [17]: > 100 µM | TGI [56]: > 100 µM | TGI [18]: > 100 µM | TGI [19]: > 100 µM | TGI [20]: > 100 µM | TGI [22]: > 100 µM | TGI [57]: > 100 µM | TGI [23]: > 100 µM | TGI [24]: > 100 µM | TGI [58]: > 100 µM | TGI [26]: > 100 µM | TGI [27]: > 100 µM | TGI [28]: > 100 µM | TGI [29]: > 100 µM | TGI [30]: > 100 µM | TGI [31]: > 100 µM | TGI [59]: > 100 µM | TGI [32]: > 100 µM | TGI [33]: > 100 µM | TGI [34]: > 100 µM | TGI [60]: > 100 µM | TGI [35]: > 100 µM | TGI [36]: > 100 µM | TGI [61]: > 100 µM | TGI [62]: > 100 µM | TGI [37]: > 100 µM | TGI [38]: > 100 µM | TGI [40]: > 100 µM | TGI [41]: > 100 µM | TGI [42]: > 100 µM | TGI [43]: > 100 µM | TGI [44]: > 100 µM | TGI [63]: > 100 µM | TGI [45]: > 100 µM | TGI [46]: > 100 µM | TGI [64]: > 100 µM | TGI [65]: > 100 µM | TGI [47]: > 100 µM | TGI [48]: > 100 µM | TGI [49]: > 100 µM | TGI [50]: > 100 µM

CC1(C)CN=C(c2ccc3ccccc3c2O)N1
TGI [1]: > 100 µM | TGI [2]: > 100 µM | TGI [51]: > 100 µM | TGI [3]: > 100 µM | TGI [52]: > 100 µM | TGI [4]: > 100 µM | TGI [5]: > 100 µM | TGI [53]: > 100 µM | TGI [7]: > 100 µM | TGI [8]: > 100 µM | TGI [9]: > 100 µM | TGI [54]: 9.29 µM | TGI [10]: > 100 µM | TGI [11]: > 100 µM | TGI [14]: > 100 µM | TGI [55]: > 100 µM | TGI [15]: > 100 µM | TGI [17]: > 100 µM | TGI [56]: > 100 µM | TGI [18]: > 100 µM | TGI [20]: > 100 µM | TGI [22]: > 100 µM | TGI [57]: > 100 µM | TGI [23]: > 100 µM | TGI [58]: > 100 µM | TGI [27]: > 100 µM | TGI [28]: > 100 µM | TGI [29]: > 100 µM | TGI [30]: > 100 µM | TGI [31]: > 100 µM | TGI [59]: > 100 µM | TGI [32]: > 100 µM | TGI [33]: > 100 µM | TGI [34]: > 100 µM | TGI [60]: > 100 µM | TGI [35]: > 100 µM | TGI [36]: > 100 µM | TGI [61]: > 100 µM | TGI [62]: > 100 µM | TGI [40]: > 100 µM | TGI [41]: > 100 µM | TGI [42]: > 100 µM | TGI [43]: > 100 µM | TGI [44]: > 100 µM | TGI [63]: > 100 µM | TGI [45]: > 100 µM | TGI [46]: > 100 µM | TGI [64]: > 100 µM | TGI [65]: > 100 µM | TGI [47]: > 100 µM | TGI [48]: > 100 µM | TGI [50]: > 100 µM

CN(C)CCCN1C(=O)N(CCCN(C)C)c2c3cc(O)ccc3nc3c([N+](=O)[O-])ccc1c23
TGI [1]: 67.6 µM | TGI [2]: 70.4 µM | TGI [51]: 78.2 µM | TGI [3]: 52.7 µM | TGI [52]: 28.3 µM | TGI [5]: 53.2 µM | TGI [53]: 63.3 µM | TGI [7]: 26.8 µM | TGI [8]: > 100 µM | TGI [9]: 26.6 µM | TGI [54]: > 100 µM | TGI [10]: 35.5 µM | TGI [11]: 30.4 µM | TGI [14]: 27.3 µM | TGI [55]: 36.2 µM | TGI [16]: 61.7 µM | TGI [17]: 29.8 µM | TGI [56]: 36.7 µM | TGI [18]: > 100 µM | TGI [19]: 33.9 µM | TGI [20]: > 100 µM | TGI [57]: 17.8 µM | TGI [23]: > 100 µM | TGI [24]: 25.1 µM | TGI [58]: 80.2 µM | TGI [26]: > 100 µM | TGI [28]: 79.1 µM | TGI [29]: 27.5 µM | TGI [30]: 29.8 µM | TGI [31]: 38.2 µM | TGI [59]: 40.4 µM | TGI [32]: 40.3 µM | TGI [33]: 26.3 µM | TGI [34]: 30.2 µM | TGI [60]: 24 µM | TGI [35]: > 100 µM | TGI [36]: 39.6 µM | TGI [61]: 33.7 µM | TGI [62]: > 100 µM | TGI [37]: 20.5 µM | TGI [38]: 37.2 µM | TGI [40]: > 100 µM | TGI [41]: 49.1 µM | TGI [43]: 62.6 µM | TGI [44]: 23.7 µM | TGI [63]: > 100 µM | TGI [45]: 48 µM | TGI [46]: 27.2 µM | TGI [64]: 64 µM | TGI [65]: 60 µM | TGI [47]: 21.3 µM | TGI [48]: 63.6 µM | TGI [49]: 27.2 µM | TGI [50]: 23.8 µM
